Measured values: US20230015823A1, “METHODS OF ADMINISTERING VOXELOTOR” (Global Blood Therapeutics, Inc., priority 2019, published 2023)
Like-named read-outs stand apart in the source and are kept apart here.

Assays:
BCRP = BCRP (Homo sapiens, UniProt Q9UNQ0); experiment: In vitro transporter studies: BCRP; assay type: in vitro ADME
OATP1B3 = OATP1B3 (Homo sapiens, UniProt Q9NPD5); experiment: In vitro transporter studies: OATP1B3; assay type: in vitro ADME
CYP2C9 = target: T1, CYP2C9 (Homo sapiens, UniProt P11712); experiment: Effect of voxelotor on PK of CYP2C9 probe substrate S-warfarin in healthy subjects; assay type: in vivo
T1 construct: endogenous in cells; host or cells: healthy subjects, in vivo
T1 sequence (P11712 whole entry): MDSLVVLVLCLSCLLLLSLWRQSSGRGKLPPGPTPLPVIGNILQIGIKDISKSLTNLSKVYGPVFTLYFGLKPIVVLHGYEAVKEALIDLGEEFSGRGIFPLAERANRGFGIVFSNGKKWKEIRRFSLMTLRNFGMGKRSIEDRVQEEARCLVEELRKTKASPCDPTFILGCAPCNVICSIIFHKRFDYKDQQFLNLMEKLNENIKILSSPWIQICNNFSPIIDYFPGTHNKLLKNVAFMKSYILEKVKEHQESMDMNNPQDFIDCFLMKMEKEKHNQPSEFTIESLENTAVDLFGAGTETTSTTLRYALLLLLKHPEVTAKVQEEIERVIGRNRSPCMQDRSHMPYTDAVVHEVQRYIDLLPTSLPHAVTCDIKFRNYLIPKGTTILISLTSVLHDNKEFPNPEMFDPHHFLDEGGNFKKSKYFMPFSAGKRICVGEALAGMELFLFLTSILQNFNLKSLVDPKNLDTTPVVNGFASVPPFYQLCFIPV
Experimental: (§1) During Period 1, subjects received a single dose of caffeine 100 mg, warfarin sodium 10 mg+vitamin K 10 mg, omeprazole 20 mg, and midazolam hydrochloride 2 mg on Day 1. During Period 2, subjects received voxelotor 900 mg QD on Days 1 and 2 followed by 600 mg QD on Day 3, a single dose of caffeine 100 mg, warfarin sodium 10 mg+vitamin K 10 mg, omeprazole 20 mg, and midazolam hydrochloride 2 mg on Day 4, and voxelotor 600 mg QD on Days 4 through 7.
(§2) Whole blood and plasma concentrations of voxelotor and plasma concentrations of caffeine, paraxanthine, S-warfarin, omeprazole, 5-hydroxyomeprazole, midazolam, and 1-hydroxymidazolam were determined using validated assays.

CYP2C19 = target: T2, CYP2C19 (Homo sapiens, UniProt P33261); experiment: Effect of voxelotor on PK of CYP2C19 probe substrate omeprazole in healthy subjects; assay type: in vivo
T2 construct: endogenous in cells; host or cells: healthy subjects, in vivo
T2 sequence (P33261 whole entry): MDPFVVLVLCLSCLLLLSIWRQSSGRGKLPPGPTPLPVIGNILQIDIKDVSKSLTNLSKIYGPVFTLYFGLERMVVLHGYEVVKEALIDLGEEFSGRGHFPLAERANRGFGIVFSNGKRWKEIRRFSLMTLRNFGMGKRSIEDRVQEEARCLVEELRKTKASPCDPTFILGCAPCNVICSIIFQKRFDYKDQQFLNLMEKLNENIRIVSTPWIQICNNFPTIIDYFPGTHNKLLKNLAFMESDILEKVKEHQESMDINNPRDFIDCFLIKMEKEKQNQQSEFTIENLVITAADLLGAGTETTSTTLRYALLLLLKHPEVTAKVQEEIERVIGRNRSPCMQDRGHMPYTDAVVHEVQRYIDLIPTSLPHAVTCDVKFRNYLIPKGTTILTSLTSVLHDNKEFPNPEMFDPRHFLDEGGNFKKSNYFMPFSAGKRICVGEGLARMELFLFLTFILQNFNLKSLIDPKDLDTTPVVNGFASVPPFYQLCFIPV
Experimental: as §1, §2

OATP1A2 = OATP1A2 (Homo sapiens, UniProt P46721); experiment: In vitro transporter studies: OATP1A2; assay type: in vitro ADME
OATP1A2, sequence (P46721 whole entry): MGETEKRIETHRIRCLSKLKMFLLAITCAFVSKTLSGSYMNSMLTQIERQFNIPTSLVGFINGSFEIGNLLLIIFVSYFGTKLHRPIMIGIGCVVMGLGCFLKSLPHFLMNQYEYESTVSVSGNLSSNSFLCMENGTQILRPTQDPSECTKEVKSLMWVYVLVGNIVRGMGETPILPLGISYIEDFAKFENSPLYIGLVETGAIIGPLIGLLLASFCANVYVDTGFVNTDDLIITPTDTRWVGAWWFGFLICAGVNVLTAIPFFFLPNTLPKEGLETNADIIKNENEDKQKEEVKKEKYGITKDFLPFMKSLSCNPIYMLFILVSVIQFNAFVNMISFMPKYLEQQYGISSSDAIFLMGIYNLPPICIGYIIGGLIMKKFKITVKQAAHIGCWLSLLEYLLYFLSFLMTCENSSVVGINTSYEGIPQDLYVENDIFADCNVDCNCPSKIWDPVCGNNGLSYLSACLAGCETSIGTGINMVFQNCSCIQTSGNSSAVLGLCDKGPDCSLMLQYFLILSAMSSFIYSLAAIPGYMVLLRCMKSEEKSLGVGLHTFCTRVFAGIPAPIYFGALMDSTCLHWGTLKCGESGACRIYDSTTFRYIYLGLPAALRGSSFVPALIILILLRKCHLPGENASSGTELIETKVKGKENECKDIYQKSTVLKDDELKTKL

[1] = Phase 1 hepatic impairment study: safety evaluation (TEAEs); assay type: in vivo
From the text: This was a Phase 1, multiple-center, nonrandomized, open-label, parallel group study of a single oral dose of voxelotor administered in subjects with mild (Child-Pugh A; score 5 to 6 points), moderate (Child-Pugh B; score 7 to 9 points), or severe (Child-Pugh C; score 10 to 15 points) hepatic impairment and subjects with normal hepatic function. This study was designed to assess the effects of mild, moderate, or severe hepatic impairment on the PK of a single oral dose of voxelotor. Routine safety assessments (AE monitoring, vital signs, physical examinations, clinical laboratory tests, and ECGs) were performed.
Eligible subjects received a single oral dose of voxelotor 1500 mg (5×300-mg capsules) on Day 1 (for normal hepatic function, mild and moderate hepatic impairment). A lower dose of voxelotor 600 mg (2×300-mg capsules) was administered for the subjects with severe hepatic impairment.
Adverse events and concomitant medication use were monitored throughout the study. Safety assessments, including physical examinations, vital signs assessments, 12-lead ECGs, and clinical laboratory tests, were performed. Whole blood and plasma concentrations of voxelotor were determined using validated assays.
All statistical analyses were performed using the safety population. All AEs were coded to SOC and PT using MedDRA (Version 19.0) and presented by subject in data listings. A treatment-emergent AE was defined as an AE that was not present prior to treatment with study drug, but appeared following treatment or was present at treatment initiation but worsened during treatment. An AE that was present at treatment initiation but resolved and then reappeared while the subject was on treatment was a TEAE (regardless of the intensity of the AE when the treatment was initiated). Programmatically, an AE was classified as a TEAE if the start date and time occurred on or after the start date and time of first study drug dosing. The overall incidence of TEAEs (number and percentage of subjects) as well as the number of events were summarized by hepatic function group, severity, SAEs, causally related TEAE and SAEs, TEAEs leading to study or treatment discontinuation, life-threatening SAEs, and SAEs resulting in death.
The TEAEs were summarized and tabulated at both the subject (number [%] of subjects) and event (number of events) level: (1) by hepatic function group, SOC, and PT; (2) by hepatic function group, SOC, PT, and maximum reported severity; and (3) by hepatic function group, SOC, PT, and maximum relationship to study drug.

hemoglobin S (HbS) = hemoglobin S (HbS) (Homo sapiens, UniProt P69905); experiment: Mechanism of action: binding to HbS and HbS polymerization
hemoglobin S (HbS), sequence (P69905 whole entry): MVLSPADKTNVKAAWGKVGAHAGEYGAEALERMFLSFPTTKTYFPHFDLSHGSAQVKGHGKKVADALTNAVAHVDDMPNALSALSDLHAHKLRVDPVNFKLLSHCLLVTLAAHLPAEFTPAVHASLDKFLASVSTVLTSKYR
hemoglobin S (HbS), sequence (P68871 with tags, fused parts or gaps E7V partner limits assumed): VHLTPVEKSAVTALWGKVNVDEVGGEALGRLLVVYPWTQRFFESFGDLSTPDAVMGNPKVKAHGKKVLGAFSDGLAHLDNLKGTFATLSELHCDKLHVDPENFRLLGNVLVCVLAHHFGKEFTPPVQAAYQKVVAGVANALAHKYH

[2] = Effect of food on voxelotor PK; assay type: in vivo
CYP2B6 = CYP2B6 (Homo sapiens, UniProt P20813); experiment: In vitro studies: CYP2B6; assay type: in vitro ADME
CYP2B6, sequence (P20813 whole entry): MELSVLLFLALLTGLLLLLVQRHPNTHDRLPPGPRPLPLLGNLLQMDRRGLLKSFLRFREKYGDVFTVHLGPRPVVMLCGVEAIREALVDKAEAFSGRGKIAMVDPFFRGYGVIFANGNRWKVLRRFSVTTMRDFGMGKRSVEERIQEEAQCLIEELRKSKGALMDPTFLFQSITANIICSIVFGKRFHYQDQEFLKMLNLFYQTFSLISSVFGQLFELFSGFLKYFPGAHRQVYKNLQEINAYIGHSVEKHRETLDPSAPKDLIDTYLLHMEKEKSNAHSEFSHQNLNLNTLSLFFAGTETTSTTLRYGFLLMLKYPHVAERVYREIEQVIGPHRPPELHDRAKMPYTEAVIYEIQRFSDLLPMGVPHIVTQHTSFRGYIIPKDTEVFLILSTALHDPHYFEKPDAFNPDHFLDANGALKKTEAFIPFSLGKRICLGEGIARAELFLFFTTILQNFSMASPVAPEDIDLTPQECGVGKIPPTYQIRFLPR

[3] = Clinical pharmacokinetics of voxelotor in plasma, whole blood and RBCs; assay type: in vivo, human; details: for AUC(0-t): read-out: AUC0-24h, Geometric Mean (% CV); for Cmax: read-out: Cmax, Geometric Mean (% CV)
From the text: Voxelotor is absorbed into plasma and is then distributed predominantly into RBCs due to its preferential binding to Hb. The major route of elimination of voxelotor is by metabolism with subsequent excretion of metabolites into urine and feces. The PK are linear and voxelotor exposures increased proportionally with either single or multiple doses (Table 3) in whole blood, plasma, and RBCs. Steady-state after repeated administration is reached within 8 days and exposures of voxelotor are consistent with accumulation predicted based on single dose data in patients with SCD.
The median plasma and whole blood Tmax of voxelotor after oral administration is 2 hours. The mean peak concentrations in whole blood and RBCs are observed between 6 and 18 hours after oral administration.
Voxelotor apparent volume of distribution of the central compartment and peripheral compartment are 338 L and 72.2 L in plasma, respectively. Protein binding is 99.8% in vitro. The blood-to-plasma ratio is approximately 15:1 in patients with SCD.

CYP3A4 = CYP3A4 (Homo sapiens, UniProt P08684); experiment: Effect of voxelotor on PK of CYP3A4 probe substrate midazolam in healthy subjects; details: human, in vivo
CYP3A4, sequence (P08684 whole entry): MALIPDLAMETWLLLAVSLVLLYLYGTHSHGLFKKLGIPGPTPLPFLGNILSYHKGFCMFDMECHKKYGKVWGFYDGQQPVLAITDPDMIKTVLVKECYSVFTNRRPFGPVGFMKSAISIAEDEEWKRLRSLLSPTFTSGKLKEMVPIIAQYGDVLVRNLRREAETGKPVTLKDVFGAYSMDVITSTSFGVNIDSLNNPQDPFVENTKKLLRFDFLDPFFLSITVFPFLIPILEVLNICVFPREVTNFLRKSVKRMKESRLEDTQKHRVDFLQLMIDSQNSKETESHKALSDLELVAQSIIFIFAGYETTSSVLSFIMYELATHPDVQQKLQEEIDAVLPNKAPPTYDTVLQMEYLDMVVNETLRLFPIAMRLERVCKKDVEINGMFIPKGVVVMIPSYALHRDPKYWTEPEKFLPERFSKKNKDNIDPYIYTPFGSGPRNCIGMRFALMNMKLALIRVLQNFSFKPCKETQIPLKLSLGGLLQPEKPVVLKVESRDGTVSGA
Experimental: as §1, §2

OAT3 = OAT3 (Homo sapiens, UniProt Q8TCC7); experiment: In vitro transporter studies: OAT3; assay type: in vitro ADME
OAT3, sequence (Q8TCC7 whole entry): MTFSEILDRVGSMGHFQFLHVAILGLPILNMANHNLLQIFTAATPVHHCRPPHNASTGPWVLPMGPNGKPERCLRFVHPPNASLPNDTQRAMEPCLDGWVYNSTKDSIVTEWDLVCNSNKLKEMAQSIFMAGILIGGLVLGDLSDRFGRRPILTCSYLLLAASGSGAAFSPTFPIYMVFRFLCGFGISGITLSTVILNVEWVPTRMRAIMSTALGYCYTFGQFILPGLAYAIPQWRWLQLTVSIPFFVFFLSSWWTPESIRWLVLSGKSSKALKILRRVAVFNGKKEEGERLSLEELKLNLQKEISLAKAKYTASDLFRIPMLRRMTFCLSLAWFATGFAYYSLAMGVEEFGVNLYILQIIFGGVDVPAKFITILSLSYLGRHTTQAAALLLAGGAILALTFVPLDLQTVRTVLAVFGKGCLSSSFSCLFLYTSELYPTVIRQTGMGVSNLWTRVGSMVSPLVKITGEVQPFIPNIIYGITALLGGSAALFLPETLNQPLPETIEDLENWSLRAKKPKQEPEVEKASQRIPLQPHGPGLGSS

[4] = healthy subjects, multiple doses of voxelotor 900/600 mg QD
[5] = human, oral, 1500 mg, plasma, Voxelotor 1,500 mg
[6] = human, oral, 1500 mg, whole blood, Voxelotor 1,500 mg

BCRP, sequence (Q9UNQ0 whole entry): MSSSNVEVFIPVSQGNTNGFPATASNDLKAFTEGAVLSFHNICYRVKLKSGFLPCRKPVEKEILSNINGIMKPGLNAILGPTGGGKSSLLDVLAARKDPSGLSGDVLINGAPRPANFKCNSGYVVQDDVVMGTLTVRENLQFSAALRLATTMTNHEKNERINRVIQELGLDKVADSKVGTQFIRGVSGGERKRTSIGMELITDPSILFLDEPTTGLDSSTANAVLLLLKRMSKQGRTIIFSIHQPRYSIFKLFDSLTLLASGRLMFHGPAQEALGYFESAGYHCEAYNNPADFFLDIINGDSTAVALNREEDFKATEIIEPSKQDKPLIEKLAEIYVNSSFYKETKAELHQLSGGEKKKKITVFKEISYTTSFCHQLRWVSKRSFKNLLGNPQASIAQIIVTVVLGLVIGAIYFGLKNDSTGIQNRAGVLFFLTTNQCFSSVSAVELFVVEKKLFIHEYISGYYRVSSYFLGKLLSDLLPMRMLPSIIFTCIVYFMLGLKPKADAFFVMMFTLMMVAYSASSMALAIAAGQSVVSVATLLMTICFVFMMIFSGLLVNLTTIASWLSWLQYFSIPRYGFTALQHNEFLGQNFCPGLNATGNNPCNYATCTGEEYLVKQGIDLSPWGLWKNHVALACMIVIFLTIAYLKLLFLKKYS
OATP1B3, sequence (Q9NPD5 whole entry): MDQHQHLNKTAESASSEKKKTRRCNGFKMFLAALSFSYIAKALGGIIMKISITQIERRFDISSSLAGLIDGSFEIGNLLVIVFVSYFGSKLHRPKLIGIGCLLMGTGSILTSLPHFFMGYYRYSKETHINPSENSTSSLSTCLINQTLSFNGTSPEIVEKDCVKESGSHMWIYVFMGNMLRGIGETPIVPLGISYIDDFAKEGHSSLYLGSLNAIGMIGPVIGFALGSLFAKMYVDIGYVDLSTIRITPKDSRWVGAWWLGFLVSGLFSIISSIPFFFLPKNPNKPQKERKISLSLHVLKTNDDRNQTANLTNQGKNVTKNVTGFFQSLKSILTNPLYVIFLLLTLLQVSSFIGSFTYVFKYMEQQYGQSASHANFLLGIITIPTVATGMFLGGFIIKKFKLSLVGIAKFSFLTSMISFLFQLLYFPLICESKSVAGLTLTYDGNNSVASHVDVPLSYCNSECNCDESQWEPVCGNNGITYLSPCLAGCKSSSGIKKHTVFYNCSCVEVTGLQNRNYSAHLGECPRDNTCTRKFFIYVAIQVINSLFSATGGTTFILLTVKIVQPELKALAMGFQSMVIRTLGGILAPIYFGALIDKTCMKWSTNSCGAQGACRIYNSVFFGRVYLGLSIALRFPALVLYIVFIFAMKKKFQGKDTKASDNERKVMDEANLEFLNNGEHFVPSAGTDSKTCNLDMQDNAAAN

SMILES: CC(C)n1nccc1-c1ncccc1COc1cccc(O)c1C=O [voxelotor, 2-hydroxy-6-((2-(1-isopropyl-1H-pyrazol-5-yl)pyridin-3-yl)methoxy)benzaldehyde]
- inhibition of BCRP (BCRP): not an inhibitor
- substrate of BCRP (BCRP): not a substrate
- inhibition of OATP1B3 (OATP1B3): not an inhibitor
- substrate of OATP1B3 (OATP1B3): not a substrate
- effect of voxelotor on PK of CYP2C9 probe substrate (S-warfarin) (CYP2C9; [4]): no clinically meaningful effect
- inhibition of CYP2C9 in vivo (CYP2C9; human, in vivo): not
- effect of voxelotor on PK of CYP2C19 probe substrate (omeprazole) (CYP2C19; [4]): no clinically meaningful effect
- inhibition of CYP2C19 in vivo (CYP2C19; human, in vivo): not
- substrate of OATP1A2 (OATP1A2): not a substrate
- deaths, SAEs, AEs leading to discontinuation ([1]; all hepatic function groups): No deaths, other serious adverse events (SAEs), and no AEs leading to discontinuation of the study were reported
- subjects reporting mild TEAEs ([1]; mild hepatic impairment, 4 of 7 subjects): 57.1%
- subjects reporting a moderate TEAE ([1]; moderate hepatic impairment, 1 of 7 subjects): 14.3%
- subjects with TEAE of diarrhea (mild) ([1]; moderate hepatic impairment, 1500 mg, 5 of 7 subjects): 71.4%
- subjects reporting mild TEAEs ([1]; moderate hepatic impairment, 5 of 7 subjects): 71.4%
- TEAEs ([1]; normal hepatic function, 1500 mg): No TEAEs were reported
- subjects with diarrhea (most frequently reported TEAE) ([1]; overall, 7 events in 7 subjects): 25%
- subjects reporting TEAEs ([1]; overall, 11 subjects, 17 TEAEs): 39.3%
- subjects with TEAEs possibly/probably related to study drug ([1]; overall, seven subjects, 8 TEAEs): 25.0%
- subjects reporting a mild TEAE and a moderate TEAE ([1]; severe hepatic impairment, 600 mg, 1 of 7 subjects): 14.3%
- safety and tolerability ([1]; single oral dose 1500 mg (mild, moderate, normal) or 600 mg (severe hepatic impairment)): safe and well tolerated
- inhibition of HbS polymerization (hemoglobin S (HbS)): dose-dependent inhibition of HbS polymerization
- increase of AUC with high-fat, high-calorie meal relative to fasted state ([2]; plasma): 42%
- increase of Cmax with high-fat, high-calorie meal relative to fasted state ([2]; plasma): 95%
- increase of AUC with high-fat, high-calorie meal relative to fasted state ([2]; whole blood): 42%
- increase of Cmax with high-fat, high-calorie meal relative to fasted state ([2]; whole blood): 45%
- induction of CYP2B6 (CYP2B6): inducer
- inhibition of CYP2B6 (CYP2B6): reversible and time-dependent inhibitor
- AUC(0-t) [3, 5]: 246 µg·h/mL
- Cmax [3, 5]: 12.6 µg/mL
- AUC(0-t) [3, 6]: 3820 µg·h/mL
- Cmax [3, 6]: 179 µg/mL
- half-life ([3]; human, plasma, oral, 1500 mg, patients with SCD, read-out: terminal elimination half-life, geometric mean (converted)): 35.5 h
- Vd ([3]; human, plasma, oral, read-out: apparent volume of distribution of the central compartment): 338 L
- Tmax ([3]; human, plasma and whole blood, oral administration, read-out: median Tmax): 2 h
- time to steady-state after repeated administration ([3]; patients with SCD): ≤ 8 days
- apparent volume of distribution of the peripheral compartment ([3]; plasma): 72.2 L
- Half-life, Geometric Mean (% CV) ([3]; plasma, Voxelotor 1,500 mg): 35.5 (25) hours
- apparent oral clearance ([3]; plasma, patients with SCD): 6.7 L/h
- PK linearity ([3]; single or multiple doses, whole blood, plasma and RBCs): linear
- inhibition of CYP3A4 in vivo (CYP3A4): inhibits
- inhibition of OAT3 (OAT3): not an inhibitor
